Key:
[1] = tested on: human nasopharyngeal carcinoma KB3-1; experiment: MTT assay (Test C), human nasopharyngeal carcinoma KB3-1; assay type: cell-based; details: KB 3-1, 96 h, KB3-1, MTT, 4 days, read-out: cytotoxic activity IC50
Procedure: (§1) Test C. Evaluation of G-Quadruplex Stabilizers Using the MTT Assay.
(§2) Cell lines are selected based upon one or more factors including data on their relative telomerase activity, varied organ sites, available comparative data, and their ability to form solid tumors in athymic nude mice. The advantage of an MTT assay is that the cytotoxic/cytostatic activities can be readily determined. Cells are cultured for 4 days at 37° C. followed by addition of MTT (3-[4,5-dimethylthiozol-2-yl]-2,5-diphenyltetrazolium bromide (Sigma) (0.1 mg/ml). Cells are treated with MTT for 3 hrs and then dissolved in 100 μl 100% DMSO. Absorbance is measured at OD570 using a microplate reader (Model 3550 UV from BIO-RAD). The MTT value is normalized to OD570 of cells treated with Cellfectin alone. Stock solutions of each compound are prepared. MTT assays are performed using spectrometric analysis and 96 well plates. Compound 258, a representative compound of formula I, was evaluated against a variety of cell lines using the MTT assay compound.

murine leukemia P388 = experiment: MTT assay (Test C), murine leukemia P388; assay type: cell-based; details: Mus musculus, 96 h, 4 days, read-out: cytotoxic activity IC50
Procedure: as §1, §2

[2] = tested on: human lymphoblastoma RPMI 8402; experiment: MTT assay (Test C), human lymphoblastoma RPMI 8402; assay type: cell-based; details: 96 h, RPMI 8402, MTT, 4 days, read-out: cytotoxic activity IC50
Procedure: as §1, §2

[3] = tested on: human breast cancer cell lines HBC-4, BSY-1, HBC-5, MCF-7, and MDA-MB-231; details: range over HBC-4, BSY-1, HBC-5, MCF-7, MDA-MB-231; cited from earlier work
[4] = tested on: natural bone marrow CD34-positive cells; details: cited from earlier work
telomerase = details: read-out: telomerase inhibitory activity IC50; cited from earlier work
K62 leukemia cells = details: cited from earlier work
LAN1 = details: read-out: cytotoxicity IC50; cited from earlier work
SK-N-AS = details: read-out: cytotoxicity IC50; cited from earlier work
LAN5 = details: read-out: cytotoxicity IC50; cited from earlier work
WAC2 = details: read-out: cytotoxicity IC50; cited from earlier work
MiaPaCa = details: read-out: cytotoxicity IC50; cited from earlier work

For `CC(C)[C@@H]1NC(=O)c2coc(n2)-c2coc(n2)-c2coc(n2)C/C=C/c2coc(n2)-c2coc(n2)-c2coc1n2` [Compound 258, Macrocyclic Hexaoxazole], the IC50 [1] was 0.025 µM, the melting point was 195 to 197 °C (dec.) and the IC50 (murine leukemia P388) was 0.045 µM. For the same compound, the IC50 [2] was 0.025 µM.
For `CC[C@H](C)[C@@H]1NC(=O)c2nc(oc2-c2ccccc2)-c2csc(n2)-c2coc(n2)-c2coc(n2)-c2coc(n2)CNC(=O)[C@@H](C(C)C)NC1=O` [YM-216391], the GI50 [3] is given as 0.015 to 0.033 µM.
For `Cc1oc2nc1-c1nc(co1)-c1nc(co1)-c1nc(co1)-c1nc(co1)-c1nc(co1)C1=NC(CS1)c1nc-2c(C)o1` (stereo not shown) [Telomestatin], the “effect on BFU-E and CFU-GM” value [4] is given as “much lesser effect”, the IC50 (telomerase) is given as 0.005 µM and the “effect on plating efficiency” value (K62 leukemia cells) is given as “does suppress the plating efficiency”. For the same compound, the IC50 (LAN1) was 4 µM, the IC50 (SK-N-AS) was 0.8 µM and the IC50 (LAN5) was 2.5 µM. For the same compound, the IC50 (WAC2) was 3.2 µM and the IC50 (MiaPaCa) was 0.5 µM.

From patent US8729060B2, “Macrocyclic polyoxazole compounds and use thereof” (Rutgers, the State University of New Jersey, priority 2007, dated 2014)
